Measured values taken from patent US8865623B2, “Herbicidally active cyclic diones and derivatives thereof, processes for their preparation, compositions, and method of controlling weeds” (Syngenta Limited, priority 2009, dated 2014).

How the values were obtained:
Assay type in all cases: in vivo
[1] = system: Avena fatua (AVEFA); test: Post-emergence herbicidal activity, glasshouse pot test; details: Avena fatua, 312 h, rate 250 g/ha, evaluated after 13 days, glasshouse, read-out: Post-emergence activity AVEFA (100=total damage to plant; 0=no damage to plant)
In short: (§1)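 Plants in standard-soil pots, glasshouse at 24/16° C, 14 h photoperiod, 65% humidity. Aqueous spray (acetone/water 50:50 formulation, 0.5% Tween 20) applied pre-emergence at day 1 or post-emergence at day 8. Percent damage recorded after 13 days.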

[2] = system: Lolium perenne (LOLPE); test: as above; details: Lolium perenne, 312 h, rate 250 g/ha, evaluated after 13 days, glasshouse, read-out: Post-emergence activity LOLPE (100=total damage to plant; 0=no damage to plant)
In short: as §1

[3] = system: Alopecurus myosuroides (ALOMY); test: as above; details: Alopecurus myosuroides, 312 h, rate 250 g/ha, evaluated after 13 days, glasshouse, read-out: Post-emergence activity ALOMY (100=total damage to plant; 0=no damage to plant)
In short: as §1

[4] = system: Echinochloa crus-galli (ECHCG); test: as above; details: Echinochloa crus-galli, 312 h, rate 250 g/ha, evaluated after 13 days, glasshouse, read-out: Post-emergence activity ECHCG (100=total damage to plant; 0=no damage to plant)
In short: as §1

[5] = system: Avena fatua (AVEFA); test: Pre-emergence herbicidal activity, glasshouse pot test; details: Avena fatua, 312 h; Rate 250 g/ha; pre-emergence spray; evaluated after 13 days; read-out: Pre-emergence activity AVEFA (100=total damage to plant; 0=no damage to plant)
In short: as §1

[6] = system: Lolium perenne (LOLPE); test: as above; details: Lolium perenne, 312 h; Rate 250 g/ha; pre-emergence spray; evaluated after 13 days; read-out: Pre-emergence activity LOLPE (100=total damage to plant; 0=no damage to plant)
In short: as §1

[7] = system: Alopecurus myosuroides (ALOMY); test: as above; details: Alopecurus myosuroides, 312 h; Rate 250 g/ha; pre-emergence spray; evaluated after 13 days; read-out: Pre-emergence activity ALOMY (100=total damage to plant; 0=no damage to plant)
In short: as §1

[8] = system: Echinochloa crus-galli (ECHCG); test: as above; details: Echinochloa crus-galli, 312 h; Rate 250 g/ha; pre-emergence spray; evaluated after 13 days; read-out: Pre-emergence activity ECHCG (100=total damage to plant; 0=no damage to plant)
In short: as §1

Structure (SMILES) | pest or weed control at 250 g/ha [1] [%] | pest or weed control at 250 g/ha [2] [%] | pest or weed control at 250 g/ha [3] [%] | pest or weed control at 250 g/ha [4] [%] | pest or weed control at 250 g/ha [5] [%] | pest or weed control at 250 g/ha [6] [%] | pest or weed control at 250 g/ha [7] [%] | pest or weed control at 250 g/ha [8] [%]
CCc1ccc(Oc2cc(C(F)(F)F)cc(Cl)n2)cc1C1=C(O)C(C)(C)OC(C)(C)C1=O [Example A-146] | 30 | 20 | 30 | 70 | 0 | 0 | 10 | 10
CCc1ccc(Oc2ccc(Cl)cn2)cc1C1=C(O)C(C)(C)OC(C)(C)C1=O [Example A-147] | 70 | 90 | 80 | 100 | 20 | 80 | 50 | 100
CCc1ccc(Oc2ncc(C(F)(F)F)cc2C(F)(F)F)cc1C1=C(O)C(C)(C)OC(C)(C)C1=O [Example A-148] | 100 | 90 | 90 | 100 | 90 | 100 | 50 | 90
CCc1ccc(Oc2ccc([N+](=O)[O-])cn2)cc1C1=C(O)C(C)(C)OC(C)(C)C1=O [Example A-149] | 30 | 30 | 10 | 50 | 10 | 20 | 10 | 60
CCc1ccc(Oc2ccc(C#N)cn2)cc1C1=C(O)C(C)(C)OC(C)(C)C1=O [Example A-150] | 70 | 40 | 60 | 100 | 10 | 70 | 10 | 80
CCc1ccc(Oc2nc(F)c(F)c(Cl)c2F)cc1C1=C(O)C(C)(C)OC(C)(C)C1=O [Example A-151] | 20 | 30 | 20 | 70 | 20 | 50 | 30 | 70
CCc1ccc(Oc2cc(C(F)(F)F)ccn2)cc1C1=C(O)C(C)(C)OC(C)(C)C1=O [Example A-153] | 80 | 30 | 70 | 90 | 20 | 60 | 50 | 100
CCc1ccc(Oc2ncccc2C(F)(F)F)cc1C1=C(O)C(C)(C)OC(C)(C)C1=O [Example A-154] | 10 | 20 | 20 | 60 | 0 | 10 | 0 | 20
CCc1ccc(Oc2cc(F)cc(F)n2)cc1C1=C(O)C(C)(C)OC(C)(C)C1=O [Example A-156] | 20 | 20 | 30 | 50 | 0 | 20 | 20 | 60
CCc1ccc(Oc2ncc(I)cc2Cl)cc1C1=C(O)C(C)(C)OC(C)(C)C1=O [Example A-157] | 100 | 90 | 90 | 100 | 30 | 50 | 40 | 80
